According to patent US5877185A, “Synergistic compositions useful as anti-tumor agents” (priority 1995, dated 1999):
Read-outs that look alike come from different tables or passages of the source.

What was measured:
E ras cells = test: cytostatic and cytocidal activity; format: cell-based, bovine; conditions: Bos taurus, average of three trials
Source text: pADPRT ligands that oxidize CCHC zinc fingers are not unique inhibitors of pADPRT. […] Hakam et al., FEBS Lett. 193:1-4 (1991). These ligands bind non-covalently to the nicotinamide site and internal DNA-seeking domains of pADPRT. Bauer et al., manuscript in preparation (1994). In contrast, CCHC-oxidizing ligands also bind non-covalently to the nicotinamide site, but initially attack the F1 zinc finger oxidatively. Id. […] Id. […] U.S. Ser. No. 08/076,313 filed Jun. 11, 1993.
Each value is the average of three trials. Each trial deviated from the average by no more than twenty percent. […] Another isomer of the iodo-nitro-benzamide series, 2-iodo-4-nitrobenzamide had no effect at the concentrations given above.

MCF-7 = test: cytotoxicity of INO2 BA with and without BSO, MCF-7; format: cell-based; conditions: Homo sapiens
Experimental: (§1) The concentration of BSO was 1 mM for all cell lines except HT 144, where the concentration was 0.25 mM. Cells were seeded in the recommended growth medium at a density of 1.5×10^4 cell/cm^2 into 2 cm^2 wells. Drugs were added simultaneously 4 hours after seeding, and incubation was continued for 48 hours at 37° C. in a 5% CO2 atmosphere. For assessment of drug effects cells were detached by trypsinization and counted in a hemacytometer.
(§2) Cell lines Nos. 1-4 were obtained from Dr. C. Benz, University of California, San Francisco. MDA 468 and MCF-7 human mammary cancer lines, MCF-7-B-ADR drug-resistant mammary cancer line, Du 145 drug-resistant human prostate cancer line, HT 144 human melanoma cell line, Hep-G2 human hepatocellular carcinoma line, and PC-12 rat pheochromocytoma line were obtained from the University of California Cell Culture Facility.

MCF-7-B-ADR = test: cytotoxicity of INO2 BA with and without BSO, MCF-7-B-ADR; format: cell-based; conditions: Homo sapiens
Experimental: as §1, §2

HT 144 = test: cytotoxicity of INO2 BA with and without BSO, HT 144; format: cell-based; conditions: Homo sapiens
Experimental: as §1, §2

PC-12 = test: cytotoxicity of INO2 BA with and without BSO, PC-12; format: cell-based; conditions: Rattus norvegicus, INO2 BA alone, 48 hours
Experimental: as §1, §2

U 937 = test: cytotoxicity of INO2 BA with and without BSO, U 937; format: cell-based; conditions: Homo sapiens, INO2 BA alone, 48 hours
Experimental: as §1, §2

[1] = tested on: SIV 22803 (AZT-resistant); test: AZT-resistant SIV propagation (syncytia formation), SIV 22803; format: cell-based; conditions: for Syncytia: BSO 0
Experimental: CEM × 174 (3 × 10^5 /ml) were infected with equal doses o
SIVmac239 or virus isolates from SIVmac239infected rhesus macaques (MMU
23686, 22803). Three days postinfection, INO2 BA concentrations
ranging from 0 to 300 μM with or without BSO were added, and incubated
for an additional 3 days. Cell cultures were then examined for syncytia
formation. The number of syncytia in cell cultures was counted in
arbitration fields under 40× magnification and scored as follows: […]

L 1210 cells = test: cytotoxic effect of IABP and INO2 BA, alone and combined, on L 1210 cell growth; format: cell-based, murine; conditions: Mus musculus, L1210, 72 h; INO2 BA 64 μM, three days; read-out: decrease of L 1210 cell proliferation
Experimental: 64 μM INO2 BA decreased L 1210 cell proliferation by approximately 80% over a three day growth period.

[2] = tested on: L-1210 Murine Leukemia Cells; test: effect of nitroso- and nitro-compounds in L-1210 murine leukemia cells (suspension); format: cell-based; conditions: drug exposure 18 hours
Experimental: II. I50 and LD100 Values for Nitroso- and Nitro-Compounds in (A) Mammary Cancer Cells (monolayer cultures) and in (B) L-1210 Murine Leukemia Cells (suspension culture).
Cells were seeded at 5×10^4 to 2×10^5 /ml; drugs were added at the time of seeding; drug exposure was for 18 hours.

HIV-1 (MN strain) = test: infectivity of NOBA-treated HIV-1 virions; format: cell-based; conditions: 3000 or 6000 μM NOBA, 37° C.
HIV-1 (LAV strain) = test: in vitro anti-retroviral testing (HIV-1 inactivation) in human peripheral lymphocytes (PBL); format: cell-based
Experimental: Both 6-NOBP and NOBA were tested on viral growth of HIV-1 (LAV strain) in phytohemagglutinin-stimulated human peripheral lymphocytes (PBL). An HIV-1 stock having an infectivity titer of 100,000 TCID50 was incubated for 30 min. at 22° C. with either of the drugs. Control HIV samples, containing no drugs, were incubated in the same manner. […] At the end of this incubation cultures were assayed for productive infection by an immunoassay for HIV-1 antigens and by reverse transcriptase as described in McDougal et al., J. Immunol. Methods 76:171-183 (1985). Virus titers were expressed as percentile values (percent infected cultures) compared to the controls, containing HIV dilutions which were not preincubated with the C-nitroso drugs. In a separate series of experiments, HIV-1 dilutions and C-nitroso drugs (see upper abscissa) were not preincubated but were added simultaneously to lymphocytes in exactly the same concentrations as described previously (i.e., following preincubation) and viral growth monitored 9 days later.

## NC(=O)c1ccc(I)c([N+](=O)[O-])c1 [INO2 BA, 4-iodo-3-nitrobenzamide]
E ras cells; E ras cells, read-out: Cytostatic Effect I50
  IC50: 60 µM
E ras cells; with 0.8 mM BSO, read-out: Cytocidal Effect I50
  IC50: 4 µM
MCF-7; MCF7, 48 h, read-out: LD100
  IC100: 200 µM
MCF-7; MCF7, INO2 BA alone, 48 hours, read-out: I50
  IC50: 100 µM
MCF-7-B-ADR; 48 h, read-out: LD100
  IC100: 220 µM
MCF-7-B-ADR; INO2 BA alone, 48 hours, read-out: I50
  IC50: 90 µM
HT 144; HT-144, 48 h, read-out: LD100
  IC100: 200 µM
HT 144; HT-144, INO2 BA alone, 48 hours, read-out: I50
  IC50: 100 µM
PC-12; read-out: I50
  IC50: 60 µM
PC-12; read-out: LD100
  IC100: 120 µM
U 937; read-out: I50
  IC50: 65 µM
U 937; read-out: LD100
  IC100: 150 µM
[1]; INO2 BA 25 μM
  Syncytia: ++ (10-20)
[1]; INO2 BA 50 μM
  Syncytia: ++ (10-20)
[1]; INO2 BA 100 μM
  Syncytia: ++ (10-20)
[1]; INO2 BA 200 μM
  Syncytia: - (0)
[1]; INO2 BA 300 μM
  Syncytia: - (0)
[1]; Simian immunodeficiency virus, 72 h, read-out: INO2 BA concentration abrogating cell fusion (syncytia)
  IC100: > 100 µM
[1]; with 0.05 mM BSO
  syncytia-blocking concentration of INO2 BA: 25 µM
L 1210 cells
  inhibition at 64 µM: ~80%

## NC(=O)c1cccc(N=O)c1 [NOBA, 3-nitrosobenzamide]
[2]
  I50: 7.5 nanomoles/10^5 cells
  LD100: 15 nanomoles/10^5 cells
HIV-1 (MN strain)
  infectivity: complete loss of infectivity
HIV-1 (LAV strain); 100 μM
  TCID50 (calculated infectious titer after treatment): 11 TCID50
HIV-1 (LAV strain); 30 min. at 22° C., FIG. 7A
  decrease of relative amount of infectious virus available to cause 50% infected cultures: 4 log units
HIV-1 (LAV strain); Human immunodeficiency virus 1, Lymphocyte, 0.5 h, 100 μM, of TCID50, read-out: Decrease
  log reduction at 100 µM: 4.2
HIV-1 (LAV strain); Human immunodeficiency virus 1, Lymphocyte, 100 μM
  inhibition at 100 µM: > 100%
